Source: patent publication US5019384A, “Immunonodulating compositions and their use” (Massachusetts Institute of Technology, priority 1989, dated 1991)
Where a chain is given by its changes, count along the chain named. Entries after “also recorded” stand apart in the source; their conditions may differ.

Assays:
[1] = molecular target: T1, I-E^k (Mus musculus, UniProt P04224+P04230); test: Inhibition of binding of 125I-labeled Cytochrome c (pigeon) (P88-104) to I-E^k; conditions: 125I Cytochrome c (pigeon) (P88-104) bound to I-E^k; read-out: Concentration (μM) of P12-26 Required for 50 percent Inhibition
T1 sequence (P04224 26-255): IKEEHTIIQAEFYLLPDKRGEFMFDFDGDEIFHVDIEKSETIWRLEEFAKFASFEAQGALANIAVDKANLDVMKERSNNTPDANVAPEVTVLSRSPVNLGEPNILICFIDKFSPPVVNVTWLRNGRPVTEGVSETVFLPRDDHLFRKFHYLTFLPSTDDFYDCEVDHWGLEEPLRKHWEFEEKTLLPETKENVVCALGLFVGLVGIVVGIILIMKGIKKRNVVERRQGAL
T1 sequence (P04230 27-264): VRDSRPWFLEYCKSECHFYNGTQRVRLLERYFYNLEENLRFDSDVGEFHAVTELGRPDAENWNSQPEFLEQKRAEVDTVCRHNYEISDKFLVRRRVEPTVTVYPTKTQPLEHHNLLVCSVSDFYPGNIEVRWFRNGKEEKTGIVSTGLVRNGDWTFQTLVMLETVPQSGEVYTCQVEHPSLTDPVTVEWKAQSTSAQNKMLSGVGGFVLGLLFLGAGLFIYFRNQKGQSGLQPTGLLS
From the text: (§1) Ia-molecules were purifed from Nonidet P-40 (NP-40) lysates of A20 (H2^d) or AKTB-1b (H2^k) cells by affinity chromatography using the following monoclonal antibodies: MK-D6 (I-A^d -specific), 10-3-6 (I-A^k -specific) specific) or 14-4-4 (I-E^d/k -specific) coupled to Sepharose 4B beads (Pharmacia Fine Chemicals, Sweden).
A gel filtration assay was used for determining the degree of association between immunogenic peptides and Ia. The assay is described in: Buus, S. et al., Proceeding of the National Academy of Sciences, U.S.A. (1986) 83:3968, the teaching of which is incorporated herein by reference. […] The Ia-peptide complexes were separated from free peptide by gel filtration and the percentage of peptide bound to Ia was calculated as the ratio of the ^125 I-labeled peptide in the void volume to the total ^125 I-labeled peptide recovered.
For the inhibition assay a dose-range of unlabeled cI P12-26 peptide was added to the incubation mixture of Ia and ^125 I-labeled peptide (600, 120, 24, ad 48 μM). The degree of association between Ia and labeled peptide was determined by gel filtration as described in Table 1. […] The concentration of inhibitory peptide required to obtain a 50 percent inhibition of binding was calculated. […]

[2] = molecular target: T2, I-E^d (Mus musculus, UniProt P01904+P01915); test: Gel filtration binding of 125I-labeled peptide to purified Ia (I-E^d)
T2 construct: endogenous in cells
T2 sequence (P01904 26-255): T1 sequence (P04224 26-255) with H177T, V194M
T2 sequence (P01915 27-264 limits assumed): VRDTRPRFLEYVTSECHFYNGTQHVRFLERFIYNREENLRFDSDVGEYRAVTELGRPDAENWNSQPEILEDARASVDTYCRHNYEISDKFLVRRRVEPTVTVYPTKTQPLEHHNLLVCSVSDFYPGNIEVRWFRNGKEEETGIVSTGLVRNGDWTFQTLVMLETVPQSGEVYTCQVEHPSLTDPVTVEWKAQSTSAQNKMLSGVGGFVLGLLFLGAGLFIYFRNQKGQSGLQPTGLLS
From the text: (§2) The peptide P12-26 was modified by the addition of a tyrosine residue to the N-terminus to serve as an acceptor for the ^125 I.
as §1
(§3) A gel filtration assay was used for determining the degree of association between immunogenic peptides and Ia. The assay is described in: Buus, S. et al., Proceeding of the National Academy of Sciences, U.S.A. (1986) 83:3968, the teaching of which is incorporated herein by reference. Briefly, 40 μmole of purified Ia in 1 percent NP-40/PBS was mixed with 0.2 μmole of ^125 I-labeled peptide (approximately 200,000 cpm for each experiment) and incubated for 48 hours at room temperature to allow for formation of the Ia-peptide complex. The Ia-peptide complexes were separated from free peptide by gel filtration and the percentage of peptide bound to Ia was calculated as the ratio of the ^125 I-labeled peptide in the void volume to the total ^125 I-labeled peptide recovered.

[3] = system: monoclonal antibody B3.11; test: Inhibition of monoclonal antibody B3.11 binding to BSA conjugated to P12-26; conditions: BSA conjugated to P12-26 adsorbed to microwells; inhibitors listed in order of decreasing inhibition
From the text: Antibody recognition of (NANP)3-12-26 by monoclonal antibodies was studied. The antigen, bovine serum albumin (BSA) conjugated to P12-26 was adsorbed to microwells and horseradish peroxidase (HRP) labeled antibody specific for P12-26 added. In the absence of (NANP)3-12-26 or in the presence of P12-26LF, there is no inhibition of monoclonal antibody B3.11 binding.

[4] = system: Lymph node-derived T-cell; test: Lymph node-derived T-cell proliferation in mice immunized with (NANP)3-12-26; format: in vivo; conditions: eight days after immunization with (NANP)3-12-26
Procedure: For T-cell proliferation studies 100 μg of (NANP)3-12-26 emulsified in CFA was injected in the base of the tail and also food pad of mice on day 0. […] Cells were seeded at 8×10^5 /well flat bottom microtiter plates 1/2 volume in 0.1 ml RPMI containing 10% FCS, […], penicillin, streptomycin and antigen. On day 2, 1 μCi of ^3 H thymidine (ICN) was added to triplicate or duplicate cultures. 16 hr later cells were harvested and incorporated ^3 H was assayed by scintillation counter.
All T-cell activity is directed to the Class II binding sequence.

[5] = system: T-cell hybridoma DO-11.10; format: cell-based
[6] = molecular target: T1, I-E^k; test: Gel filtration binding of 125I-labeled peptide to purified Ia (I-E^k)
From the text: as §2, §1, §3

[7] = system: monoclonal antibody specific for (NANP)50; test: Inhibition of binding of monoclonal antibody specific for (NANP)50 to (NANP)50; parameters: species or system mice; conditions: radiolabelled (NANP)50 bound to microwells
From the text: The above study was repeated except the antigen was radiolabelled (NANP)50 which was bound to microwells.

[8] = molecular target: T3, I-A^k (Mus musculus, UniProt P01910+P06343); test: Gel filtration binding of 125I-labeled peptide to purified Ia (I-A^k)
T3 construct: endogenous in cells
From the text: as §2, §1, §3

[9] = system: lymph node-derived T-cells from P12-26 immune mice; test: Standard lymph node proliferation assay (thymidine incorporation); format: cell-based; conditions: cultured with 10 μM P12-26
From the text: The proliferation of these same cultures was not inhibited (75,000 cpm) by a monoclonal antibody, 34-1-4S, which is specific for I-E^d and which inhibits the stimulation of a hemocyanin specific, I-E^d resticted T-cell hybridoma.

T3 sequence (P01910 24-256): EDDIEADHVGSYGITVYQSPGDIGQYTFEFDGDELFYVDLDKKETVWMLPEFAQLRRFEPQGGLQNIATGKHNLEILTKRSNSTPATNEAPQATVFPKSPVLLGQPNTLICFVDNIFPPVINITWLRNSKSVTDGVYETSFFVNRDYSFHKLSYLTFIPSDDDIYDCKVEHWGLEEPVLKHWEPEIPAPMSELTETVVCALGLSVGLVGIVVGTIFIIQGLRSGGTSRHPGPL
T3 sequence (P06343 28-263): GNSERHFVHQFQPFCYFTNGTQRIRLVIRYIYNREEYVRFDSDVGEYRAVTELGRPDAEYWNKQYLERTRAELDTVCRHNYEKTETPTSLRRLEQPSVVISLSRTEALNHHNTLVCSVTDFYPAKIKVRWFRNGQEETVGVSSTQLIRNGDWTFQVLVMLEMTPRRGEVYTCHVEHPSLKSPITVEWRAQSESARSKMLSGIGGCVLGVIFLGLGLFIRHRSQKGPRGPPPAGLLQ

Substance: P12-26: derived from the cI protein of bacteriophage lambda (residues 12-26)
- IC50 [1]: 300 µM
- Binding to the I-E^d molecule (in words) [2]: binds most tightly; also recorded: binds best; also recorded: binds exceedingly well
- Inhibition of monoclonal antibody B3.11 binding [3]: Inhibition is observed
- T-cell proliferation by thymidine incorporation on culture with peptide [4]: T-cell proliferation as assayed by thymidine incorporation was seen
- Stimulation of DO-11.10 [5]: Neither of these peptides can stimulate DO-11.10 on its own
- Inhibition of ovalbumin-specific T-cell activation (DO-11.10) ([5]; Ova (P324-336) as stimulator, A20 presenting cells, peptide at 50 μM, 24 hrs): act as inhibitors
- Binding to the I-E^k molecule (in words) [6]: able to bind to both molecules as expected
- Inhibition of binding of monoclonal antibody specific for (NANP)50 [7]: did not inhibit binding
- Binding to the I-A^k molecule (in words) [8]: not bound; also recorded: inability of P12-26 to bind
- Proliferation (thymidine incorporation) [9]: 68,000 cpm
